“Also recorded” adds a separate entry of the source.
Experiments:
FGFR4 = molecular target: T1, FGFR4 (Homo sapiens, UniProt P22455); assay: MaMTH-DS assay, FGFR4 bait with Shc1 prey; format: cell-based
T1 construct: expressed in transfected cells

EGFR-L858R-T790M-C797S = molecular target: T2, EGFR-L858R-T790M-C797S (Homo sapiens, UniProt P00533, C797S/L858R/T790M); assay: MaMTH / MaMTH-DS assay, EGFR-L858R-T790M-C797S bait with Shc1 prey; format: cell-based; conditions: retest in triplicate, MaMTH signal remaining (low = inhibition)
T2 construct: change the phosphorylation status of full-length EGFR proteins in the context of living cells; expressed in transfected cells

ALK = molecular target: T3, ALK (Homo sapiens, UniProt Q9UM73); assay: MaMTH-DS assay, ALK bait with Shc1 prey; format: cell-based
T3 construct: expressed in transfected cells
T3 sequence (Q9UM73 19-1620): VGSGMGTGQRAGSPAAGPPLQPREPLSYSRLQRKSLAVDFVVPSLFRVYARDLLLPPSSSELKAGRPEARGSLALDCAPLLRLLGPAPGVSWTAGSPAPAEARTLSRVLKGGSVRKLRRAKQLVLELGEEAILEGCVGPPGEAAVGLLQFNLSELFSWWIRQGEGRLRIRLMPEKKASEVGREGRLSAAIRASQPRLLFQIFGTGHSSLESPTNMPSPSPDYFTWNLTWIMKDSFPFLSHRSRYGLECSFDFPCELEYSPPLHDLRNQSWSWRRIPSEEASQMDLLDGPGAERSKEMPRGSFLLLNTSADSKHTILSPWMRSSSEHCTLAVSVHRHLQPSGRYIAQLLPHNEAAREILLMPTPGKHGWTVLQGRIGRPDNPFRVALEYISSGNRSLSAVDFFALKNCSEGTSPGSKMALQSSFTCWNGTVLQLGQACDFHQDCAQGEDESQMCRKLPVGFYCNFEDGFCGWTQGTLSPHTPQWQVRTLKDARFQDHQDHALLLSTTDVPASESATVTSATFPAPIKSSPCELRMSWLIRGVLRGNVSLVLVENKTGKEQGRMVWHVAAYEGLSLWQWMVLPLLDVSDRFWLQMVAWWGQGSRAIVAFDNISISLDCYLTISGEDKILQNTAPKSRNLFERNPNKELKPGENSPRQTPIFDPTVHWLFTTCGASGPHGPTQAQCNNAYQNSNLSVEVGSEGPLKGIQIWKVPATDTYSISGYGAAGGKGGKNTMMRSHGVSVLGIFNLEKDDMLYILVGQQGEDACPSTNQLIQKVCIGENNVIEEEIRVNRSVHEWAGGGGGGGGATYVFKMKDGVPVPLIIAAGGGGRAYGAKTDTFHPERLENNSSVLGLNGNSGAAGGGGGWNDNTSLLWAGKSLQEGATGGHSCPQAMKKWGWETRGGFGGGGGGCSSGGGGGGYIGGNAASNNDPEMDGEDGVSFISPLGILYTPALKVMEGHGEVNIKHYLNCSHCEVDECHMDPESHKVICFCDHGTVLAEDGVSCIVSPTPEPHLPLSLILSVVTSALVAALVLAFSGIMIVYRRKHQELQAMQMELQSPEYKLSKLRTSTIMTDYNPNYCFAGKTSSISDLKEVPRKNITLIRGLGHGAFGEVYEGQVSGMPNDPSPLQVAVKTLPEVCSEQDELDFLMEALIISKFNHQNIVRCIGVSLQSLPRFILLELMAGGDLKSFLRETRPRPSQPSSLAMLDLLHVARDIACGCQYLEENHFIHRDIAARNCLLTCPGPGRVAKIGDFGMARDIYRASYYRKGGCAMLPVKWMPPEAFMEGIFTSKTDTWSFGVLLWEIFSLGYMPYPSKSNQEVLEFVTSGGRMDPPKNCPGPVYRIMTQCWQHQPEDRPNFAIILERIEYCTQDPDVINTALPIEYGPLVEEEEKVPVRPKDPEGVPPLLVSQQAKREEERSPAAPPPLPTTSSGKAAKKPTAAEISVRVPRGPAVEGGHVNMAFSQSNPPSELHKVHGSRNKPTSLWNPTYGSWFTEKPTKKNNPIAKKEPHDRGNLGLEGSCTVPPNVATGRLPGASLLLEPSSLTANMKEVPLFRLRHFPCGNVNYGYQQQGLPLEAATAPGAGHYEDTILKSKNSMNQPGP

MET = molecular target: T4, MET (Homo sapiens, UniProt P08581); assay: MaMTH-DS assay, MET bait with Shc1 prey; format: cell-based
T4 construct: expressed in transfected cells
T4 sequence (P08581 308-1390 limits assumed): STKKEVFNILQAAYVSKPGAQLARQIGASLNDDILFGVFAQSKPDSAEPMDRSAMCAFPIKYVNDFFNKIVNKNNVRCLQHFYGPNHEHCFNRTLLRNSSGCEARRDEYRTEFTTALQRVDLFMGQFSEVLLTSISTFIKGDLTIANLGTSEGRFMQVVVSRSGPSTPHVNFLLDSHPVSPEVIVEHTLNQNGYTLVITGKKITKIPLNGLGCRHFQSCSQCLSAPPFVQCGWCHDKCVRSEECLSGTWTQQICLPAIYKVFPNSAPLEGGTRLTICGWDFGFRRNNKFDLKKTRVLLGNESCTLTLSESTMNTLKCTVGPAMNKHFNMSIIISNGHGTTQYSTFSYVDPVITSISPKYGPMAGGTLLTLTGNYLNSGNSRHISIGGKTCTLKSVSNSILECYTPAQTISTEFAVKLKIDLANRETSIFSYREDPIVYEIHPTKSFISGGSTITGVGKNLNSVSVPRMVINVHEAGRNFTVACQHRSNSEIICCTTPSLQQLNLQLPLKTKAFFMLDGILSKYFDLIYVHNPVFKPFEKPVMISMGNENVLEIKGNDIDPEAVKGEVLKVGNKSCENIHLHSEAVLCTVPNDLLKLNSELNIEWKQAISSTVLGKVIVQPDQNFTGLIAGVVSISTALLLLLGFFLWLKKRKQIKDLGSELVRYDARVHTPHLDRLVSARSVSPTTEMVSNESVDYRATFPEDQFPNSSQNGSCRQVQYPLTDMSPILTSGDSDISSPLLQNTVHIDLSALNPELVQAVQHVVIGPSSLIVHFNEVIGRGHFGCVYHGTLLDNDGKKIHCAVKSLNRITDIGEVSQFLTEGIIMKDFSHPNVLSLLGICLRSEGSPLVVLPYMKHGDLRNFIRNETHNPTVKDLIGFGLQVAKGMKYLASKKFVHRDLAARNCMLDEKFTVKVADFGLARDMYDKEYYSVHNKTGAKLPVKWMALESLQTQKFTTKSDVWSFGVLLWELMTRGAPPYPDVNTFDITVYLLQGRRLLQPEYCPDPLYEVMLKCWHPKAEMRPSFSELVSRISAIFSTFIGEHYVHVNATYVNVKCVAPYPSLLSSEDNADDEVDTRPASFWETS
T4 sequence (P08581 25-307 partner limits assumed): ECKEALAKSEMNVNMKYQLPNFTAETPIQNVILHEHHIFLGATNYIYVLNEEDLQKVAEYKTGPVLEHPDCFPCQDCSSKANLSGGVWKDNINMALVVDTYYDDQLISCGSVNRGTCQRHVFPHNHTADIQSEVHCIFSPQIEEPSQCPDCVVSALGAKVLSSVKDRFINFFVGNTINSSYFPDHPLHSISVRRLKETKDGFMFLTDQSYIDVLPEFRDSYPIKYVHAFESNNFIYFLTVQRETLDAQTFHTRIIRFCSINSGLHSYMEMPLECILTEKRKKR

EGFR ex19del/T790M/C797S = EGFR ex19del/T790M/C797S (Homo sapiens, UniProt P00533, C797S/DEL746-750/T790M); assay: In vitro kinase assay, EGFR ex19del/T790M/C797S kinase domain; format: biochemical
EGFR-WT = molecular target: T5, EGFR-WT (Homo sapiens, UniProt P00533); assay: MaMTH assay, EGFR-WT bait with Shc1 prey; format: cell-based
T5 construct: change the phosphorylation status of full-length EGFR proteins in the context of living cells; expressed in transfected cells

wild-type EGFR = molecular target: T6, wild-type EGFR (Homo sapiens, UniProt P00533); assay: In vitro kinase assay, EGFR WT kinase domain; format: biochemical; conditions: up to 10 micromolar
T6 construct: recombinant proteins of the kinase domain of wild-type EGFR; purchased Reaction Biology Corporation

AXL = molecular target: T7, AXL (Homo sapiens, UniProt P30530); assay: MaMTH-DS assay, AXL bait with Shc1 prey; format: cell-based
T7 construct: expressed in transfected cells
T7 sequence (P30530 26-894): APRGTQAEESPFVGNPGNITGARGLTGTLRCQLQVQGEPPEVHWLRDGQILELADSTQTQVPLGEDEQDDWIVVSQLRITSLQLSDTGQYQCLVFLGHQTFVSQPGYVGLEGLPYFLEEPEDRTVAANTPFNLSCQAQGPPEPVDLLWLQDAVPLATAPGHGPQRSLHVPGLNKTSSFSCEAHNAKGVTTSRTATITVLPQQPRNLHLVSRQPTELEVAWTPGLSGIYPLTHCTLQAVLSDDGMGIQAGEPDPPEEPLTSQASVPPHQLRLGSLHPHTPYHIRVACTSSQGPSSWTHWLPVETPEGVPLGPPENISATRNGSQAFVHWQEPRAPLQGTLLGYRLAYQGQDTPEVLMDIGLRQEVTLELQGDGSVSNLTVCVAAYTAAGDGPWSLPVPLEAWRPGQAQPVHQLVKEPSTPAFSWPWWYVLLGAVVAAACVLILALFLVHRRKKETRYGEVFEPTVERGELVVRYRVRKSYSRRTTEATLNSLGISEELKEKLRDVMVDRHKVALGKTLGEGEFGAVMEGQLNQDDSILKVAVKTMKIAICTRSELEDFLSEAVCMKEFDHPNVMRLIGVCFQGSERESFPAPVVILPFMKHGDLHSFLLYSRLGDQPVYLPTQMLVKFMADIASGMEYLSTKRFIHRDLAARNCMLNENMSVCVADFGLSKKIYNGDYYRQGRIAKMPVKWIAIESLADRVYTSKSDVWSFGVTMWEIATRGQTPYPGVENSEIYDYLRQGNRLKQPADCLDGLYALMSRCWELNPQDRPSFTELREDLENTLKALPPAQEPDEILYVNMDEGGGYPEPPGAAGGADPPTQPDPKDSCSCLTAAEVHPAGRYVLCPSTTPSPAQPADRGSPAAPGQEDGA
Text: To test MaMTH-DS sensitivity and its potential suitability for use in RTK drug screening, we selected several RTKs whose dysfunction is associated with cancer, and prepared stable MaMTH-DS ‘baits’ in our reporter cell lines. We then performed MaMTH-DS assays in the presence of transfected Shcl functional adapter protein ‘prey’ and small-molecule TKIs, including both control molecules and compounds known to specifically target the function of the corresponding RTKs. First, we examined the response of the RTK MET to the TKIs Crizotinib and Erlotinib using MaMTH-DS.
MaMTH assays. Cells stably expressing bait of interest (EGFR, MET, FGFR4, ALK, AXL) were seeded into 96-well TC-treated plates and grown at 37° C./5% CO2 overnight in DMEM/10% FBS/1% PS to ˜50-60% confluency. Cells were transfected with 50 ng/well of Nub-Shc1 ‘prey’ protein by calcium phosphate precipitation. Five hours after transfection, media was aspirated out and cells were treated with 100 uL of fresh media containing specific compound and 0.5 ug/ml of tetracyline to induce bait expression. After 24 hours, luciferase activity was measured by chemoluminescence.

T1 sequence (P22455 22-802): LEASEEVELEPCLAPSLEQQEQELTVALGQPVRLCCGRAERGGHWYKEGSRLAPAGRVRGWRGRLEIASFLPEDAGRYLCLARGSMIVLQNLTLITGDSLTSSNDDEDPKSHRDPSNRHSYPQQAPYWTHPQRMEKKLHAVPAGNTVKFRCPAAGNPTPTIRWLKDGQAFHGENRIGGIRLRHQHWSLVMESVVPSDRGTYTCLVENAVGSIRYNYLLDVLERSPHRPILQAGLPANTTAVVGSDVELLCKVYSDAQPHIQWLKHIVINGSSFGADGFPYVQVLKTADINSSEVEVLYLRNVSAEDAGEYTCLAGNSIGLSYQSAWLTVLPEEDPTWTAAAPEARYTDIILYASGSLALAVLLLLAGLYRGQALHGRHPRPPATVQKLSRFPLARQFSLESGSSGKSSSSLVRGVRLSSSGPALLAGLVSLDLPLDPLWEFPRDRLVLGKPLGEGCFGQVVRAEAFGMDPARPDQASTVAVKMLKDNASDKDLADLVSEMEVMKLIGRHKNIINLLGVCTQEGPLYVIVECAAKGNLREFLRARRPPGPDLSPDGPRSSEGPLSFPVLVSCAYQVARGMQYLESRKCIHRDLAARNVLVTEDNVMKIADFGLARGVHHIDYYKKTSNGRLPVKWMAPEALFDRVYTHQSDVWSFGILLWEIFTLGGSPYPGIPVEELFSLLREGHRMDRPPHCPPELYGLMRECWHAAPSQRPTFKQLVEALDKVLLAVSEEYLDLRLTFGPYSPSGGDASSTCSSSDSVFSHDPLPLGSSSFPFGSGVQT

Question: For `CCN(CC)c1ccc2cc(-c3nc4ccccc4o3)c(=O)oc2c1` [Compound 5213777, 3-(1,3-benzoxazol-2-yl)-7-(diethylamino)-2H-chromen-2-one], which “MaMTH-DS reporter activity” value (FGFR4) is on record?
Answer: not

Question: And the “Average Percent” value (EGFR-L858R-T790M-C797S)?
Answer: 27.8%

Question: And the “MaMTH-DS reporter activity” value (ALK)?
Answer: not

Question: What about the “MaMTH-DS interaction with Shc1” value (MET) of the same compound?
Answer: not

Question: What about the “effect on kinase activity” value (EGFR ex19del/T790M/C797S) of the same compound?
Answer: no kinase inhibitory activity; also recorded: does not inhibit the kinase activity

Question: What about the “interaction / complex formation with Shc1 (MaMTH, words)” value (EGFR-WT; EGFR WT bait) of the same compound?
Answer: not

Question: What about the “Average Percent” value (EGFR-WT; EGFR-WT bait, Shc1 prey, retest in triplicate, MaMTH signal remaining (low = inhibition)) of the same compound?
Answer: 105.3%

Question: And the “effect on kinase activity” value (wild-type EGFR)?
Answer: no kinase inhibitory activity

Question: And the “MaMTH-DS reporter activity” value (AXL)?
Answer: not
